# Patent publication US20170037028A1 (BAYER PHARMA AKTIENGESELLSCHAFT, priority 2013, published 2017)
# Read-outs that look alike come from different tables or passages of the source.
# Molecular target: T1, GLUT1 (Homo sapiens, UniProt P11166)
# T1 sequence (P11166 1-492): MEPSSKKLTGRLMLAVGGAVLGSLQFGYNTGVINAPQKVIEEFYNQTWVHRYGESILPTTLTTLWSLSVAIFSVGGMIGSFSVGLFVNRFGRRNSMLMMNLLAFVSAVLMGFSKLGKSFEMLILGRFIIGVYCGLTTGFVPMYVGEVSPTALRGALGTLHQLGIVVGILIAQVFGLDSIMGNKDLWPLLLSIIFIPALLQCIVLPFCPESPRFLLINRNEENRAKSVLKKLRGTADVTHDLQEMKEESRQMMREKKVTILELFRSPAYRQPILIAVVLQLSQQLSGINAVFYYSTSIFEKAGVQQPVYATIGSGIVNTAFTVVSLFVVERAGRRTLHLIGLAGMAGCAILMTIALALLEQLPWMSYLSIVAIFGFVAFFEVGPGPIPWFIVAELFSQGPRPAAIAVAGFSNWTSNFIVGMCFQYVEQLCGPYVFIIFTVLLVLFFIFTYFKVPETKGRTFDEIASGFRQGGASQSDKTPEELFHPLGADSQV
# Test: Indirect measurement of GLUT1 activity by quantification of intracellular ATP levels (glucose induced ATP increase)
# Format: cell-based
# Set-up: endogenous in cells; host or cells: DLD1 or CHO-K1
# Settings: read-out: IC50 regarding glucose induced ATP increase (GLUT1 inhibition)
# How it was run: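 DLD1 or CHO-K1 cells were starved overnight in glucose-free medium with 1% FCS, then combined with an oxidative phosphorylation inhibitor. GLUT1 activity was read as glucose-induced ATP increase, GLUT2 as fructose-induced. Intracellular ATP was quantified by CellTiter-Glo luminescence.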
# [1] = DLD1 cells, 0.1 mM glucose, 1 μM Rotenone, 15 min, CellTiter-Glo ATP readout, IC50 values standardized to cytochalasin B IC50 values
SMILES,IC50,IC50 [1]
Cc1nn(CC2CCOCC2)c(C)c1NC(=O)c1cc(C(F)(F)F)nc2ccc(Br)cc12 [Example 1114],,59.2 nM
Cc1nn(Cc2cccnc2C#N)c(C)c1NC(=O)c1cc(C(F)(F)F)nc2ccc(Br)cc12 [Example 1118],63.5 nM,
Cc1nn(Cc2ccc(C(=O)NCc3ccc(F)cc3)cc2)c(C)c1NC(=O)c1cc(C(F)(F)F)nc2ccc(Br)cc12 [Example 1119],65.1 nM,
COCCCNC(=O)c1ccc(Cn2nc(C)c(NC(=O)c3cc(C(F)(F)F)nc4ccc(Br)cc34)c2C)cc1 [Example 1120],65.5 nM,
Cc1nn(Cc2ccc(C(=O)NCCN(CCO)CCO)cc2)c(C)c1NC(=O)c1cc(C(F)(F)F)nc2ccc(Br)cc12 [Example 1121],65.5 nM,
Cc1nn(Cc2ccc(C(=O)NC(CO)CO)cc2)c(C)c1NC(=O)c1cc(C(F)(F)F)nc2ccc(Br)cc12 [Example 1122],67.3 nM,
Cc1nn(Cc2ccc(C(=O)NCC3CC3(F)F)cc2)c(C)c1NC(=O)c1cc(C(F)(F)F)nc2ccc(Br)cc12 (stereo not drawn) [Example 1123],71.1 nM,
Cc1nn(Cc2ccc(C(=O)NCc3cn(C)cn3)cc2)c(C)c1NC(=O)c1cc(C(F)(F)F)nc2ccc(Br)cc12 [Example 1125],78.5 nM,
CNC(=O)c1nn(Cc2ccc(F)cc2)c(C)c1NC(=O)c1cc(C(F)(F)F)nc2ccc(Br)cc12 [Example 1126],80 nM,
Cc1ccc2nc(C)cc(C(=O)Nc3c(C)nn(Cc4ccc(C#N)c(F)c4)c3C)c2c1 [Example 1127],83.3 nM,
COc1cc(C(=O)Nc2c(C(F)(F)F)nn(Cc3ccc(C#N)nc3)c2C)c2ccccc2n1 [Example 1128],86.5 nM,
Cc1nn(CCc2ccc(F)cc2)c(C)c1NC(=O)c1cc(C(F)(F)F)nc2ccc(Br)cc12 [Example 1129],,86.6 nM
Cc1nn(Cc2ccc(C(=O)NCc3nccs3)cc2)c(C)c1NC(=O)c1cc(C(F)(F)F)nc2ccc(Br)cc12 [Example 1130],86.6 nM,
Cc1nn(Cc2ccc(C(=O)NCCCO)cn2)c(C)c1NC(=O)c1cc(C(F)(F)F)nc2ccc(Br)cc12 [Example 1131],86.7 nM,
COc1cccc(CNC(=O)c2ccc(Cn3nc(C)c(NC(=O)c4cc(C(F)(F)F)nc5ccc(Br)cc45)c3C)cc2)c1 [Example 1132],88.2 nM,
Cc1nn(Cc2ccc(C(=O)NCCCN3CCOCC3)cc2)c(C)c1NC(=O)c1cc(C(F)(F)F)nc2ccc(Br)cc12 [Example 1133],90.1 nM,
Cc1nn(Cc2ccc(C(=O)NCC(C)(C)CO)cc2)c(C)c1NC(=O)c1cc(C(F)(F)F)nc2ccc(Br)cc12 [Example 1134],97.3 nM,
Cc1c(NC(=O)c2cc(C(F)(F)F)nc3ccc(Br)cc23)c(C(N)=O)nn1Cc1ccc(F)cc1 [Example 1135],98.1 nM,
Cc1nn(Cc2ccc(C(=O)NC(CO)(CO)CO)cc2)c(C)c1NC(=O)c1cc(C(F)(F)F)nc2ccc(Br)cc12 [Example 1136],98.2 nM,
Cc1nn(Cc2ccc(C(=O)NCCOc3ccccc3)cc2)c(C)c1NC(=O)c1cc(C(F)(F)F)nc2ccc(Br)cc12 [Example 1137],100 nM,
Cc1nn(Cc2ccc(C(N)=O)cn2)c(C)c1NC(=O)c1cc(C(F)(F)F)nc2ccc(Br)cc12 [Example 1138],102 nM,
Cc1nn(Cc2ccc(C(=O)NCCc3ccccn3)cc2)c(C)c1NC(=O)c1cc(C(F)(F)F)nc2ccc(Br)cc12 [Example 1139],105 nM,
C#CCNC(=O)c1ccc(Cn2nc(C)c(NC(=O)c3cc(C(F)(F)F)nc4ccc(Br)cc34)c2C)cc1 [Example 1141],108 nM,
Cc1nn(Cc2ccc(C(=O)NCc3cncn3C)cc2)c(C)c1NC(=O)c1cc(C(F)(F)F)nc2ccc(Br)cc12 [Example 1142],112 nM,
Cc1nn(CC2CCOCC2)c(C)c1NC(=O)c1cc(C(F)(F)F)nc2c(Cl)cc(Cl)cc12 [Example 1143],114 nM,
Cc1nn(Cc2ccc(C(=O)NCCOCCO)cc2)c(C)c1NC(=O)c1cc(C(F)(F)F)nc2ccc(Br)cc12 [Example 1144],114 nM,
Cc1nn(Cc2ccc(C(=O)N(CCO)CCO)cc2)c(C)c1NC(=O)c1cc(C(F)(F)F)nc2ccc(Br)cc12 [Example 1145],116 nM,
Cc1nn(Cc2ccc(C(=O)N(C)CCC3(O)CCCC3)cc2)c(C)c1NC(=O)c1cc(C(F)(F)F)nc2ccc(Br)cc12 [Example 1146],117 nM,
Cc1nn(Cc2ccc(C(=O)N3CC(C#N)C3)cc2)c(C)c1NC(=O)c1cc(C(F)(F)F)nc2ccc(Br)cc12 [Example 1147],117 nM,
Cc1nn(CCc2cccc(F)c2)c(C)c1NC(=O)c1cc(C(N)=O)nc2ccccc12 [Example 1148],122 nM,

# The next lines start with results.
IC50,SMILES,IC50 [1]
31.2 nM,Cc1nn(Cc2ccc(C(=O)NCC(C)(C)O)cc2)c(C)c1NC(=O)c1cc(C(F)(F)F)nc2ccc(Br)cc12 [Example 1085],
31.6 nM,Cc1nn(Cc2ccc(C#N)nc2)c(C)c1NC(=O)c1cc(C(N)=O)nc2ccc(F)cc12 [Example 1086],
32.2 nM,Cc1nn(Cc2ccc(C(=O)N3CC4(CCS4(=O)=O)C3)cc2)c(C)c1NC(=O)c1cc(C(F)(F)F)nc2ccc(Br)cc12 [Example 1087],
34.9 nM,Cc1nn(Cc2ccc(F)cc2)c(C)c1NC(=O)c1cc(C(F)(F)F)nc2ccc([N+](=O)[O-])cc12 [Example 1088],
35.5 nM,COc1ccc(Cn2nc(C(F)(F)F)c(NC(=O)c3cc(OC)nc4ccccc34)c2C)cc1 [Example 1089],
36 nM,Cc1nn(Cc2ccc(C(=O)NCCCn3ccnc3)cc2)c(C)c1NC(=O)c1cc(C(F)(F)F)nc2ccc(Br)cc12 [Example 1091],
37.9 nM,Cc1nn(Cc2ccc(C#N)cc2)c(C)c1NC(=O)c1cc(N(C)C)nc2ccccc12 [Example 1092],
38.4 nM,Cc1nn(Cc2ccc(C(=O)NCCO)cn2)c(C)c1NC(=O)c1cc(C(F)(F)F)nc2ccc(Br)cc12 [Example 1093],
39.3 nM,Cc1nn(CC2CCN(S(C)(=O)=O)CC2)c(C)c1NC(=O)c1cc(C(N)=O)nc2ccccc12 [Example 1094],
41.1 nM,Cc1nn(Cc2ccc(C(=O)NC(C)(CO)CO)cc2)c(C)c1NC(=O)c1cc(C(F)(F)F)nc2ccc(Br)cc12 [Example 1096],
41.3 nM,C=Cc1ccc(Cn2nc(C)c(NC(=O)c3cc(C)nc4ccc(C)cc34)c2C)cc1 [Example 1097],
41.4 nM,Cc1nn(Cc2ccc(C(=O)NCCNC(=O)C3CC3)cc2)c(C)c1NC(=O)c1cc(C(F)(F)F)nc2ccc(Br)cc12 [Example 1098],
41.9 nM,Cc1nn(Cc2ccc(C(=O)N3CCC(CO)CC3)cc2)c(C)c1NC(=O)c1cc(C(F)(F)F)nc2ccc(Br)cc12 [Example 1099],
42.1 nM,Cc1nn(CCc2ccc(F)cc2)c(C)c1NC(=O)c1cc(C(N)=O)nc2ccccc12 [Example 1100],
42.8 nM,Cc1nn(Cc2ccc(C(=O)N[C@@H](C)CO)cc2)c(C)c1NC(=O)c1cc(C(F)(F)F)nc2ccc(Br)cc12 [Example 1101],
43.5 nM,COc1cc(C(=O)Nc2c(C)nn(Cc3ncccc3C#N)c2C)c2ccccc2n1 [Example 1102],
44.7 nM,Cc1nn(CC2COc3ccccc3O2)c(C)c1NC(=O)c1cc(C(N)=O)nc2ccccc12 (stereo not drawn) [Example 1103],
47.8 nM,COC(=O)[C@@H](NC(=O)c1ccc(Cn2nc(C)c(NC(=O)c3cc(C(F)(F)F)nc4ccc(Br)cc34)c2C)cc1)[C@@H](C)O [Example 1104],
48.2 nM,Cc1c(NC(=O)c2cc(C(F)(F)F)nc3ccc(Br)cc23)c(C(F)(F)F)nn1Cc1ccncc1C#N [Example 1105],
49.6 nM,Cc1nn(Cc2ccc(C(=O)NCCn3cccn3)cc2)c(C)c1NC(=O)c1cc(C(F)(F)F)nc2ccc(Br)cc12 [Example 1106],
52.2 nM,Cc1nn(Cc2ccc(C(=O)NCCCC(C)(C)CO)cc2)c(C)c1NC(=O)c1cc(C(F)(F)F)nc2ccc(Br)cc12 [Example 1107],
52.5 nM,Cc1ccc(CNC(=O)c2ccc(Cn3nc(C)c(NC(=O)c4cc(C(F)(F)F)nc5ccc(Br)cc45)c3C)cc2)cc1 [Example 1108],
54.2 nM,COc1ccc(CCCn2nc(C)c(NC(=O)c3cc(OC)nc4ccccc34)c2C)cc1 [Example 1109],
55.4 nM,Cc1nn(Cc2ccc(C(=O)NCc3cccs3)cc2)c(C)c1NC(=O)c1cc(C(F)(F)F)nc2ccc(Br)cc12 [Example 1110],
56.8 nM,CNC(=O)N1CCC(Cn2nc(C)c(NC(=O)c3cc(C(F)(F)F)nc4ccc(Br)cc34)c2C)CC1 [Example 1111],
57 nM,Cc1nn(Cc2ccc(C(=O)NC[C@H](O)CO)cc2)c(C)c1NC(=O)c1cc(C(F)(F)F)nc2ccc(Br)cc12 [Example 1112],
58.5 nM,Cc1ccc2nc(C)cc(C(=O)Nc3c(C)nn(Cc4ccc(Br)cc4)c3C)c2c1 [Example 1113],
59.4 nM,COCCNC(=O)c1ccc(Cn2nc(C(F)(F)F)c(NC(=O)c3cc(C(F)(F)F)nc4ccc(Br)cc34)c2C)nc1 [Example 1115],
59.5 nM,Cc1nn(Cc2ccc(C(=O)NCCn3ccnc3)cc2)c(C)c1NC(=O)c1cc(C(F)(F)F)nc2ccc(Br)cc12 [Example 1116],
59.7 nM,Cc1nn(Cc2ccc(F)cc2)c(C)c1NC(=O)c1cc(C(F)(F)F)nc2ccc(N)cc12 [Example 1117],
